Measurements reported in ChEMBL document CHEMBL1128892, “Pharmacological evaluation of UK-14,304 analogs at cloned human adrenergic receptors” (Bioorg Med Chem Lett, 1995).
The source made the active and inactive calls. The rule behind the calls is not given here.

What was measured:
[1] = target: T1, Alpha-1B adrenergic receptor (Homo sapiens, UniProt P35368); test: Binding affinity for human Alpha-1B adrenergic receptor from cultured LM(tk-) cells using [3H]prazosin
T1 sequence (P35368 whole entry): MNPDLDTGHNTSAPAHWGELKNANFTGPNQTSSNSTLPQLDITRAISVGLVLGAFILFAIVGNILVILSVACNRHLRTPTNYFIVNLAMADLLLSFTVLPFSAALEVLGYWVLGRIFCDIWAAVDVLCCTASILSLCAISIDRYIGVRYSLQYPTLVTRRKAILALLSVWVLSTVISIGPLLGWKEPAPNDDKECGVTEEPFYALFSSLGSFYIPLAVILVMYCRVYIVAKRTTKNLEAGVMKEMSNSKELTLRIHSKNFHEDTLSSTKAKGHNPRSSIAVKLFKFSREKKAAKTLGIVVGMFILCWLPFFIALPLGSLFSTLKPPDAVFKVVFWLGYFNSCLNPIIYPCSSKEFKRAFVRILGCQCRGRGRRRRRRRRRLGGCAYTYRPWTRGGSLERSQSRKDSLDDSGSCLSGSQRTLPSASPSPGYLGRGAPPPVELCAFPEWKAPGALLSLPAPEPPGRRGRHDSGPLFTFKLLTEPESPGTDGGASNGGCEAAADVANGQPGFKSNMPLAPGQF

[2] = target: T2, Alpha-2A adrenergic receptor (Homo sapiens) (UniProt P08913); test: Inhibitory activity against Alpha-2A adrenergic receptor relative to norepinephrine
T2 sequence (whole entry): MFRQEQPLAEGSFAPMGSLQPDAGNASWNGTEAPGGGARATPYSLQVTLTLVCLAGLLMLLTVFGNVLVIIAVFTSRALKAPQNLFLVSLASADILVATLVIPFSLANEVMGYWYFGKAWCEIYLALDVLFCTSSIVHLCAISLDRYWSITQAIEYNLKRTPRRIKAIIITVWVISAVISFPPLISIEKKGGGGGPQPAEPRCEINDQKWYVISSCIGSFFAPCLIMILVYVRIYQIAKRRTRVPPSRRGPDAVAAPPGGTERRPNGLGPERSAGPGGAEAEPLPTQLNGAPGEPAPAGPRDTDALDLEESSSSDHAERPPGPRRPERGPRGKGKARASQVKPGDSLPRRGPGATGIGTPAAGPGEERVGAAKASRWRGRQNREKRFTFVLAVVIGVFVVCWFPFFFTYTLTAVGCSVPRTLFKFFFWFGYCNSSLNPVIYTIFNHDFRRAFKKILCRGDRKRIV

[3] = target: T3, Alpha-2C adrenergic receptor (Homo sapiens) (UniProt P18825); test: Inhibitory activity against Alpha-2C adrenergic receptor relative to norepinephrine
T3 sequence (whole entry): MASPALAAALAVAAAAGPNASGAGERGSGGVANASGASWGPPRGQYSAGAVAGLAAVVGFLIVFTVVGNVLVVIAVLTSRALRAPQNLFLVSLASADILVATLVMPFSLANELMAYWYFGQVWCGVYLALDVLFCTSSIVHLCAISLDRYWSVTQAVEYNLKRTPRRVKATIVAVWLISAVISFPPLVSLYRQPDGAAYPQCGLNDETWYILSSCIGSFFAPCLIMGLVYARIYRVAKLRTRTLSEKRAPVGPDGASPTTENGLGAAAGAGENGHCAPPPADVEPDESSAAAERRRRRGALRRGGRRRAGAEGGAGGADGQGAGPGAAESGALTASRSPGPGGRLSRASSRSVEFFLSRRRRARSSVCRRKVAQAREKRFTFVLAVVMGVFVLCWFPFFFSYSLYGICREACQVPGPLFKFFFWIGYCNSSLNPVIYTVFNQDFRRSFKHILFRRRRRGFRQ

[4] = target: T4, Alpha-1D adrenergic receptor (Homo sapiens, UniProt P25100); test: Binding affinity for human Alpha-1D adrenergic receptor from cultured LM(tk-) cells using [3H]- prazosin
T4 sequence (P25100 whole entry): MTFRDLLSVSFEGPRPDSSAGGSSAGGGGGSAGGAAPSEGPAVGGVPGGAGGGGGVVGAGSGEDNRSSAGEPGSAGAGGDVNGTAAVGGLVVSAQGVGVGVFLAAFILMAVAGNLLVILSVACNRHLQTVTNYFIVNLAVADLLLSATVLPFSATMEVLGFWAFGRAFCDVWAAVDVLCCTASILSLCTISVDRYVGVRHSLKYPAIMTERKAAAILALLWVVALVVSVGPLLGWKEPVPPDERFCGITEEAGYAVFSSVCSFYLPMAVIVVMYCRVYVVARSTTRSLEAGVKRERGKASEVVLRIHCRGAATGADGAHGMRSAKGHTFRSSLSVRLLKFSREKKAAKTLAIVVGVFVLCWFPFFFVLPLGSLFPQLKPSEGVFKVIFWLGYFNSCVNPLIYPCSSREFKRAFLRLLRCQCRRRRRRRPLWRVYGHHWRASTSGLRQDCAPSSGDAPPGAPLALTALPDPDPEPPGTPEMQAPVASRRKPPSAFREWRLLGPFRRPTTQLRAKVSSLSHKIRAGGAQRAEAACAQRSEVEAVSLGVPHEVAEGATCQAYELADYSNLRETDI

[5] = target: T5, Alpha-2A adrenergic receptor (Homo sapiens, UniProt P08913); test: Alpha-2A adrenergic receptor agonistic potency as inhibition of forskolin-stimulated synthesis of cyclic adenosine monophosphate; type: functional
T5 sequence (P08913 whole entry): T2 sequence (whole entry)

[6] = target: T5, Alpha-2A adrenergic receptor; test: Binding affinity for human Alpha-2A adrenergic receptor from cultured LM(tk-) cells using [3H]rauwolscine
[7] = target: T6, Alpha-1A adrenergic receptor (Homo sapiens, UniProt P35348); test: Binding affinity for human Alpha-1A adrenergic receptor from cultured LM(tk-) cells using [3H]-prazosin
T6 sequence (P35348 whole entry): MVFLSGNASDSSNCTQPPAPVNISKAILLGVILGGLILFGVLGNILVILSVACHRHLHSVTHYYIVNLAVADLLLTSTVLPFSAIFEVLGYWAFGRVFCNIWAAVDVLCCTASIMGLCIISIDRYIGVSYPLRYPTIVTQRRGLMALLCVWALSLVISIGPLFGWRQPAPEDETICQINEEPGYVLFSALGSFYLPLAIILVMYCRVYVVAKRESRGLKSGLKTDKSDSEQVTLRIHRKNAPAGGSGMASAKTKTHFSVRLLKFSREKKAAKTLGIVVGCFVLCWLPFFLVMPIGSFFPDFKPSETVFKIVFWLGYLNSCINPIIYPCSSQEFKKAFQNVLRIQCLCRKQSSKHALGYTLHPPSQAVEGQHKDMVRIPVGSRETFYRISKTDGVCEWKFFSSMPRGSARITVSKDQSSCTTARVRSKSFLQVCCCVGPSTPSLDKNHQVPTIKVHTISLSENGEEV

[8] = target: T7, Alpha-2B adrenergic receptor (Homo sapiens, UniProt P18089); test: Binding affinity for human Alpha-2B adrenergic receptor from cultured Y-1 cells using [3H]rauwolscine; type: cell-based
T7 sequence (P18089 whole entry): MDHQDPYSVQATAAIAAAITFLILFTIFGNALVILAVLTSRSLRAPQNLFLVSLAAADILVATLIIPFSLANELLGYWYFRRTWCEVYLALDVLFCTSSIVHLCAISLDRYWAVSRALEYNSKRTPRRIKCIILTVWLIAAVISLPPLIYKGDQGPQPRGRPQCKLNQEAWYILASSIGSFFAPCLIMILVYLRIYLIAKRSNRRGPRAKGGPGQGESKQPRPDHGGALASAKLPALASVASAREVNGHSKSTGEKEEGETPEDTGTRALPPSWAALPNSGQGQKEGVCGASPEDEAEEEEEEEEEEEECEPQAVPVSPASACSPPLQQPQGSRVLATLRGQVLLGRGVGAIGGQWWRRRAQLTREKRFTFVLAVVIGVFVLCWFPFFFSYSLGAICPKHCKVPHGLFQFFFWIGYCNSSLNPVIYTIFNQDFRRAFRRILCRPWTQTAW

[9] = target: T8, Alpha-2B adrenergic receptor (Homo sapiens) (UniProt P18089); test: Inhibitory activity against Alpha-2B adrenergic receptor relative to norepinephrine at 100 uM; Not active
T8 sequence (whole entry): T7 sequence (P18089 whole entry)

[10] = target: T9, Alpha-2C adrenergic receptor (Homo sapiens, UniProt P18825); test: Alpha-2C adrenergic receptor agonistic potency as inhibition of forskolin-stimulated cyclic adenosine monophosphate synthesis; type: functional
T9 sequence (P18825 whole entry): T3 sequence (whole entry)

[11] = target: T9, Alpha-2C adrenergic receptor; test: Binding affinity for human Alpha-2C adrenergic receptor from cultured LM(tk-) cells using [3H]- prazosin
[12] = target: T8, Alpha-2B adrenergic receptor (Homo sapiens); test: The Alpha-2B adrenergic receptor agonistic potency for its ability to inhibit forskolin-stimulated synthesis of cyclic adenosine monophosphate at 100 uM concentration; Not active; type: functional
[13] = target: T7, Alpha-2B adrenergic receptor; test: Alpha-2B adrenergic receptor agonistic potency as inhibition of forskolin-stimulated cyclic adenosine monophosphate synthesis; type: functional
[14] = target: T2, Alpha-2A adrenergic receptor (Homo sapiens); test: Alpha-2A adrenergic receptor agonistic potency as inhibition of forskolin-stimulated cyclic adenosine monophosphate synthesis at 100 uM; Not active; type: functional
[15] = target: T2, Alpha-2A adrenergic receptor (Homo sapiens); test: Inhibitory activity against Alpha-2A adrenergic receptor relative to norepinephrine at 100 uM; Not active
[16] = target: T3, Alpha-2C adrenergic receptor (Homo sapiens); test: Inhibitory activity against Alpha-2C adrenergic receptor relative to norepinephrine at 100 uM; Not active
[17] = target: T3, Alpha-2C adrenergic receptor (Homo sapiens); settings: 100 uM
[18] = target: T3, Alpha-2C adrenergic receptor (Homo sapiens); test: Alpha-2C adrenergic receptor agonistic potency as inhibition of forskolin-stimulated cyclic adenosine monophosphate synthesis at 100 uM; Not active; type: functional

| Structure (SMILES) | Ki [1] [µM] | Intrinsic activity [2] | Intrinsic activity [3] | Ki [4] [µM] | EC50 [5] [µM] | Ki [6] [µM] | Ki [7] [µM] | Ki [8] [µM] | Intrinsic activity [9] | EC50 [10] [µM] | Ki [11] [µM] | Log EC50 [12] | EC50 [13] [µM] | Log EC50 [14] | Intrinsic activity [15] | Intrinsic activity [16] | Log EC50 [17] | Log EC50 [18] |
| --- | --- | --- | --- | --- | --- | --- | --- | --- | --- | --- | --- | --- | --- | --- | --- | --- | --- | --- |
| Brc1c(NC2=NCCN2)ccc2nccnc12 [BRIMONIDINE] | 5.37 | 1 | 1 | 0.933 | – | – | – | – | – | – | – | – | – | – | – | – | – | – |
| CC1CN=C(Nc2ccc3nccnc3c2Br)N1 (stereo not drawn) | > 100 | 0.8 | 0.8 | 5.01 | 15.8 | 3.8 | > 100 | 3.24 | inactive | 0.832 | 0.646 | inactive | – | – | – | – | – | – |
| Clc1c(NC2=NCCN2)ccc2nccnc12 | 10.5 | 1 | 1 | 2.4 | 0.00234 | 0.0372 | 5.13 | 0.0692 | – | 0.0309 | 0.195 | – | 0.174 | – | – | – | – | – |
| c1cnc2cc(NC3=NCCN3)ccc2n1 | 3.24 | – | – | 12.3 | – | 0.309 | 18.2 | 0.219 | inactive | – | 1.41 | inactive | – | inactive | inactive | inactive | inactive | – |
| Cc1cnc2c(Br)c(NC3=NCCN3)ccc2n1 | > 100 | 1 | 0.8 | 5.01 | 0.851 | 0.0741 | > 100 | 0.324 | inactive | 0.832 | 0.646 | inactive | – | – | – | – | – | – |
| Brc1c(NC2=NCCN2)ccc2c1NCCN2 | 4.37 | 1 | 1 | 2.69 | 0.00282 | 0.00646 | 1.12 | 0.049 | – | 0.105 | 0.214 | – | 0.891 | – | – | – | – | – |
| Brc1c(NC2=N[C@@H]3CCCC[C@@H]3N2)ccc2nccnc12 | 105 | – | – | 41.7 | – | 14.8 | 14.1 | 18.2 | inactive | – | 11.5 | inactive | – | inactive | inactive | inactive | – | inactive |
| Brc1c(NC2=NCCS2)ccc2nccnc12 | 60.3 | 0.9 | – | 27.5 | 2.75 | 10.2 | 21.4 | 17.4 | inactive | – | 28.2 | inactive | – | – | – | inactive | – | inactive |
| Brc1c(NC2=NCCO2)ccc2nccnc12 | 141 | – | – | 102 | – | 26.3 | 91.2 | 85.1 | inactive | – | 49 | inactive | – | inactive | inactive | inactive | – | inactive |
